Measured values as given in patent US20110039898A1, “METHOD FOR SCAVENGING FREE RADICALS AND INHIBITING TYROSINASE AND MELANIN” (priority 2009, published 2011).

Experiments:
melanin of B16-F10 cells = experiment: Melanin content assay in situ; format: cell-based; settings: for inhibition of melanin of B16-F10 cells: three days, nicotinyl hydroxamic acid 10, 20, 40, 60 μM
Procedure: Melanin Content Assay In Situ
B16-F10 cells (1×10^5) were placed on a 60 mm culture dish. The nicotinyl hydroxamic acid and the N-methyl nicotinic acid hydroxamate iodide with various concentrations were respectively added and cultivated for three days in a culture box. After removal of the upper clean solution, the cells were washed two times using a PBS. The melanin was dissolved by 1N NaOH (90° C., 30 minutes). The melanin content was then measured (405 nm).

[1] = test system: polyphenol oxidase in the apple juice; experiment: Polyphenol oxidase inhibition assay in apple juice; format: biochemical; settings: 5 to 200 μM; absorbance at 420 nm within two hours
Procedure: Polyphenol Oxidase Inhibition Assay
Apples were purchased from local supermarkets. 100 g of apples were peeled, cored and sliced prior to juicing in a blender. The preparation was with 100 ml distilled water filtered through swab and collected by centrifugation 12,000 rpm for 10 min at 4° C. The apple juice obtained was immediately collected 200 μl in a 96 well microplate and mixed nicotinyl hydroxamic acid and N-methyl nicotinic acid hydroxamate iodide (5-200 μM).

melanoma cells (B16-F10) = experiment: Cell viability assay (MTT), melanoma cells; format: cell-based; settings: 24 hours; for cell toxicity to melanoma cells (B16-F10): under effective concentration to inhibit melanin
Procedure: (§1) The culture medium was removed from the culture dish filled with cells. The cells were washed using 10 ml of a PBS. The number of the cells was counted by a blood cell counter and diluted to a proper cell concentration. 500 µl/well of the result was added to a 24-well culture plate and cultivated in a 37° C. culture box with 5% CO2 and mist until the cells were stuck on the bottom of the culture dish. After removal of the used culture medium, a fresh drug-containing culture medium with various concentrations was added (the drug was directly added when cells were suspended) and cultivated for 24 hours in a 37° C. culture box with 5% CO2 and mist. After removal of the upper clean solution, the cells were washed two times using a PBS. An MTT solution (500 μg/ml) prepared from the medium was then added to the well and reacted for 4-6 hours in a 37° C. culture box. After removal of the upper clean solution, 100 μl of a DMSO was added until a formazan crystal was dissolved. The absorption of the result was then measured by an ELISA reader (600 nm).

[2] = test system: tyrosinase activity of B16-F10 cells; experiment: Tyrosinase activity assay in situ; format: cell-based; settings: three days
Procedure: Tyrosinase Activity Assay In Situ
B16-F10 cells (1×10^5) were placed on a 60 mm culture dish. After 12 hours, an adherent monolayer was formed on the bottom of the culture dish. After removal of the used culture medium, a fresh culture medium was added. A sample solution with various concentrations and/or 50 nM melanocytes stimulating hormone (MSH) were then added and cultivated at 37° C. for three days. After removal of the upper clean solution, the cells were washed two times using a PBS. After the cells were scraped away, protein was extracted and quantitated. One hundred μl of a phosphate buffer (250 mM, pH 6.5), 50 μl of a L-DOPA (10 mM) and 50 μl of a cell extract were sequentially added to a 96-well plate, uniformly mixed and reacted in a 37° C. culture box. The absorption of the result was then measured by an ELISA reader (475 nm).

human melanocytes = experiment: Cell viability assay (MTT), human melanocytes; format: cell-based; settings: 24 hours
Procedure: as §1

TRP-1 = experiment: Western blot of B16-F10 cells: TRP-1; format: cell-based; settings: B16-F10 cells treated 24 hours
Procedure: (§2) After using nicotinyl hydroxamic acid to treat B16-F10 cells for 24 hours, proteins are extracted and analyzed using the western blot method. The contents of tyrosinase and TRP-1 are reduced as the concentration of nicotinyl hydroxamic acid is increased.

p-MEK = experiment: Western blot of B16-F10 cells: p-MEK; format: cell-based
Excerpt: (§3) Additionally, according to the analytical results obtained using the western blot method, it was shown that the expression of p-ERK, p-MEK and p-AKT is increased as the concentration of nicotinyl hydroxamic acid is increased. Thus, in addition to inhibition of tyrosinase and adjustment of MITF, nicotinyl hydroxamic acid also reduces the melanin content in cells through ERK and AKT/PKB pathways.

TRP-2 = experiment: Western blot of B16-F10 cells: TRP-2; format: cell-based; settings: B16-F10 cells treated 24 hours
[3] = test system: melanin content in B16-F10 cells; experiment: Melanin content in B16-F10 cells with ERK and AKT pathway inhibitors; format: cell-based
Excerpt: The mechanism of inhibition of melanogenesis by nicotinyl hydroxamic acid in B16-F10 cells is further described as follows. ERK and AKT/[…] pathways participate in melanogenesis. PD98059, a MEK selective inhibitor, inhibits the activity of ERK (ERK is activated by MEK). LY294002, a phosphatidylinositol 3-kinase (PI3K) inhibitor, blocks the AKT/PKB pathway. The two inhibitors are used to determine the participation of nicotinyl hydroxamic acid in the ERK and AKT/PKA pathways. […] However, when nicotinyl hydroxamic acid is simultaneously added, the inhibition of melanin thereby is reduced by PD98059 and LY294002.

p-AKT = experiment: Western blot of B16-F10 cells: p-AKT; format: cell-based
Excerpt: as §3

tyrosinase = experiment: Western blot of B16-F10 cells: tyrosinase; format: cell-based; settings: B16-F10 cells treated 24 hours
Procedure: as §2

MITF = experiment: Western blot of B16-F10 cells: MITF; format: cell-based
Procedure: as §2
Microphthalmia-associated transcription factor (MITF) is a transcription factor controlling tyrosinase and TRP-1 expression in cells, with a helix-loop-helix leucine zipper structure, capable of regulation of melanogenesis and survival and proliferation of melanocytes.

p-ERK = experiment: Western blot of B16-F10 cells: p-ERK; format: cell-based
Excerpt: as §3

[4] = concentration increased to 5 mM

Row | SMILES | concentration added to achieve the same inhibition effect on melanin content (melanin of B16-F10 cells; MSH added) | concentration added to achieve the same inhibition effect on melanin content (melanin of B16-F10 cells; no MSH added) | inhibition of polyphenol oxidase in the apple juice [1] | viability of B16-F10 melanoma cells (melanoma cells (B16-F10); [4]) | cell toxicity to melanoma cells (B16-F10) (melanoma cells (B16-F10)) | tyrosinase activity of B16-F10 cells as concentration was increased ([2]; MSH added (50 nM)) | tyrosinase activity of B16-F10 cells as concentration was increased ([2]; no MSH added) | inhibition of melanin of B16-F10 cells (melanin of B16-F10 cells; MSH added) | inhibition of melanin of B16-F10 cells (melanin of B16-F10 cells; MSH not added) | viability of human melanocytes (human melanocytes; [4]) | content of TRP-1 as concentration is increased (TRP-1) | expression of p-MEK as concentration is increased (p-MEK) | content of TRP-2 versus concentration (TRP-2) | inhibition of melanin when PD98059 and LY294002 are simultaneously added ([3]; with PD98059 and LY294002) | expression of p-AKT as concentration is increased (p-AKT) | content of tyrosinase as concentration is increased (tyrosinase) | content of MITF as concentration is increased (MITF) | expression of p-ERK as concentration is increased (p-ERK) | viability of human melanocytes (human melanocytes; concentration increased to 1 mM) | effect on melanin content in cells ([3]; inhibitor added)
1 | O=c1cc(CO)occ1O [kojic acid, reference compound] | 1.5 mM | 1.5 mM |  |  |  |  |  |  |  |  |  |  |  |  |  |  |  |  |  | 
2 | C[n+]1cccc(C(=O)NO)c1 [N-methyl nicotinic acid hydroxamate iodide] |  |  | effectively inhibited | still alive | low cell toxicity | decreased | decreased | achieved the same effects | achieved the same effects | still alive |  |  |  |  |  |  |  |  |  | 
3 | O=C(NO)c1cccnc1 [nicotinyl hydroxamic acid] | 0.04 mM | 0.06 mM | effectively inhibited |  | low cell toxicity | decreased | decreased | effectively inhibited | effectively inhibited |  | reduced | increased | irrelevant to the concentration | reduced | increased | reduced | reduced | increased | still alive | 
4 | COc1cccc(-c2cc(=O)c3ccccc3o2)c1N [PD98059, reference compound] |  |  |  |  |  |  |  |  |  |  |  |  |  |  |  |  |  |  |  | increases melanin content
